Entries after “also recorded” stand apart in the source; their conditions may differ.
Assays:
human NTPDase1 = target: T1, human NTPDase1 (Homo sapiens, UniProt P49961); assay: Inhibition of NTPDase1 activity; format: biochemical; conditions: analogue 100 μM, substrate ATP 100 μM
T1 sequence (P49961 1-510): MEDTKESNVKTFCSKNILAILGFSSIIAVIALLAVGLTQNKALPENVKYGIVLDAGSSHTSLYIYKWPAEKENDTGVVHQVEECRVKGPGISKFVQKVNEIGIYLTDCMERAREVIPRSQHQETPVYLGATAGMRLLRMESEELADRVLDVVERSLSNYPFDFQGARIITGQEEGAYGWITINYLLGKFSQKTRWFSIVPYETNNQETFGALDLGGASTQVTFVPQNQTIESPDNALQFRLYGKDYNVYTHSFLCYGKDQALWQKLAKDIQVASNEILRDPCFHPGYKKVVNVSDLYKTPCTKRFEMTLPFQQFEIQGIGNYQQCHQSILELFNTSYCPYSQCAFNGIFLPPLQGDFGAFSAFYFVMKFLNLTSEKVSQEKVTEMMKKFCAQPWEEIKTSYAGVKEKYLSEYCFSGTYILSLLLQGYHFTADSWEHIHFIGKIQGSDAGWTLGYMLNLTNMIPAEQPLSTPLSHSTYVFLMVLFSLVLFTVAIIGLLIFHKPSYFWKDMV

human NPP1 [1] = target: T2, human NPP1 (Homo sapiens, UniProt P22413); assay: Inhibition of NPP1, ATP as substrate; format: biochemical; conditions: analogue 100 μM, ATP 100 μM
T2 sequence (P22413 1-925): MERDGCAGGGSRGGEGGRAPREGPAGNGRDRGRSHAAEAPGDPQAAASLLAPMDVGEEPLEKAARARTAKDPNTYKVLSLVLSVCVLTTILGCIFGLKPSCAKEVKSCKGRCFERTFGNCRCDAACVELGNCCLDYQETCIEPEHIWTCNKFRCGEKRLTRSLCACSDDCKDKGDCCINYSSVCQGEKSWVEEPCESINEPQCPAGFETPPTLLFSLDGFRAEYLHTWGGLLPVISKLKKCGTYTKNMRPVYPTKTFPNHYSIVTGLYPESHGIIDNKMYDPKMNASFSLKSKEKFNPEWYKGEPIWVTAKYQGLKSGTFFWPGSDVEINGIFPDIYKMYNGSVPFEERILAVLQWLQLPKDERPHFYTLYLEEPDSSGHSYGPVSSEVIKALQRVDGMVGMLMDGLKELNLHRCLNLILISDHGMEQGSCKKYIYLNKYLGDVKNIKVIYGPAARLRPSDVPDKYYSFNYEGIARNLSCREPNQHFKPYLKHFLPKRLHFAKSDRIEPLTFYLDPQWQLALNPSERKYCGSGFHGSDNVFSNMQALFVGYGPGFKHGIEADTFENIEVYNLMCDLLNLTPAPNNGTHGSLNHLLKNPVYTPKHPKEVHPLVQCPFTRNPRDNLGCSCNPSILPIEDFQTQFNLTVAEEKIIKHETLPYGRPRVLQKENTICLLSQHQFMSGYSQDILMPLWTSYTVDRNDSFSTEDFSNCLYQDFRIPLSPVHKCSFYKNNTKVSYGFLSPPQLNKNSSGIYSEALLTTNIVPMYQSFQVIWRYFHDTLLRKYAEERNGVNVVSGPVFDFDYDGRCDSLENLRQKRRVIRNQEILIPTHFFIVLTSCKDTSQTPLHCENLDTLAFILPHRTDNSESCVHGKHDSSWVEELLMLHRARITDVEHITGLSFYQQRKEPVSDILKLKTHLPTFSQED

human NPP1 [2] = target: T2, human NPP1; assay: Inhibition of NPP1, pNP-TMP as substrate; format: biochemical; conditions: Dixon and Cornish–Bowden methods
human NTPDase1,2,3,8 = assay: Inhibition of NTPDase activity, text statements pooled over NTPDase1,2,3,8; format: biochemical; conditions: analogue 100 μM, pooled over four NTPDases
P2Y11 receptor = target: T3, P2Y11 receptor (Homo sapiens, UniProt Q96G91); assay: [Ca2+]i elevation in 1321N1 astrocytoma cells expressing GFP-P2Y11 receptor; format: cell-based; conditions: 1321N1 cells; nr = no response up to 10 μM
T3 sequence (Q96G91 1-374): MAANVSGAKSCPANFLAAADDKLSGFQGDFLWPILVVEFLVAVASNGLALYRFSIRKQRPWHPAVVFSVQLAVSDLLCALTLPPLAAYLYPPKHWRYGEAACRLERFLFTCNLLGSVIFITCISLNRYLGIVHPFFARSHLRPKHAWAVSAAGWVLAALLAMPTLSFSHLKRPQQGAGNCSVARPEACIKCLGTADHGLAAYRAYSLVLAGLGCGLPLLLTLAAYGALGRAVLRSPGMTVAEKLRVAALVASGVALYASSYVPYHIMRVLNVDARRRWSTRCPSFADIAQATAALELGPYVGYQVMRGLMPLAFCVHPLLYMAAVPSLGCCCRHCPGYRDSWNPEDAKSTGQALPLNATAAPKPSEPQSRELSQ

| Structure (SMILES) | inhibition (%) ± SD, human NTPDase1 (human NTPDase1) | inhibition of ATP hydrolysis by NPP1 (human NPP1 [1]) | type of inhibition (human NPP1 [2]) | inhibition of ATP hydrolysis by NTPDase1,2,3,8 (human NTPDase1,2,3,8) | EC50 ± SEM (μM), [Ca^2+]i elevation, P2Y11 (P2Y11 receptor) |
| --- | --- | --- | --- | --- | --- |
| Nc1ncnc2c1ncn2[C@@H]1O[C@H](COP(=O)(O)CP(=O)(O)OP(O)(O)=S)[C@@H](O)[C@H]1O [compound 3] | 60% | about 90% | mixed-type inhibition, predominantly competitive | – | – |
| Nc1ncnc2c1ncn2[C@@H]1O[C@H](CO[P@](O)(=S)OP(=O)(O)C(Cl)(Cl)P(=O)(O)O)[C@@H](O)[C@H]1O [2a] | – | about 90% | mixed-type inhibition, predominantly competitive | did not interfere | not agonists; also recorded: inactive; also recorded: not active, nr ^c |
